We go through 1 compound from patent US20170029388A1, “Treatment of Neurodegenerative Diseases with Asparagine Endopeptidase (AEP) Inhibitors and Compositions Related Thereto” (INTERCONTINENTAL GREAT BRANDS LLC, priority 2014, published 2017).

Broadly, the IC50 is the concentration needed to halve the response being measured. A lower IC50 goes with inhibition by little substance.

The test system of series [1] is HepG2 cells. Nature of the series: COMET assay and micronucleus assay (genotoxicity). The note with it: 50 μM, 24 hr. It counts as cell-based, human. On the procedure: A. MTT assay, in which 50 μM of each compound was incubated with HepG2 cells for 24 hrs. The compound-containing medium was removed and the cells were incubated with MTT solution for 3 hrs. Subsequently, the MTT solution was replaced with DMSO and the 0D570 was observed. B. LDH assay, in which 50 μM of each compound was incubated with primary culture neurons for 48 hrs. The media was then collected and incubated with LDH assay substrate for 30 min at room temp, in the dark. After the reactions were quenched, the 0D490 was observed. C. COMET assay results; 50 μM compound was incubated with HepG2 cells for 24 hrs. The cells were then added low-melt agarose and plated on microscope slides. The cells were lysed and the DNA was denatured and subject to electrophoresis. Finally, the DNA was stained with SYBR Green and 100 nuclei were counted for each sample, in each experiment; the experiment was performed in triplicate. […] Cells were fixed and nuclei were stained with DAPI and 1,000 cells were counted per sample; three independent experiments were performed.
In an effort to characterize the toxicity of the compounds, an MTT assay was performed using human hepatocellular carcinoma, HepG2 cells and primary culture neurons to monitor the cell viability. […] The cytotoxicity of the compounds in primary neuronal cultures was determined using an LDH assay to measure cytolysis (FIG. 4B). […]

For series [2], the target named is T1, Cathepsin-S (Homo sapiens, UniProt P25774).
T1 construct: purchased Athens Research and Technology
Nature of the series: Cathepsin-S enzymatic assay (specificity). The series is classed as biochemical. On the procedure:
(§1) Purified recombinant enzyme was incubated with various concentrations of inhibitor in appropriate assay buffers in the presence of increasing concentrations of inhibitor. The formation of fluorescent product was monitored in duplicate reactions and the data was fit to appropriate equations to calculate the IC50 values.
(§2) To identify small-molecule inhibitors of AEP, a high-throughput screen was designed in conjunction with the Emory Chemical Biology Discovery Center. The screen incorporated mouse kidney lysates to assay a 54,384 compound library. […] Additional structural analysis and grouping allowed the compounds to be sorted into 8 distinct backbone families. […] The specificity of the compounds was also determined using four major cysteine proteases (FIG. 2).
Cathepsin-S—100 nM enzyme was pre-incubated with inhibitor in assay buffer (100 mM NaH2PO4 pH 6.5, 100 mM NaCl) for 10 min at 37° C. The reaction was initiated upon addition of 25 μM substrate (Boc-Val-Leu-Lys-AMC (Bachem)).

The target of series [3] is Cathepsin-L (Homo sapiens, UniProt P07711). Nature of the series: Cathepsin-L enzymatic assay (specificity). It counts as biochemical. On the procedure:
as §1, §2
Cathepsin-L—100 nM enzyme was pre-incubated with inhibitor in assay buffer (100 mM Sodium Acetate pH 5.5, 1 mM EDTA) for 10 min at 37° C. The reaction was initiated upon addition of 25 μM substrate (D-Val-Leu-Lys-AMC (Bachem)).

Series [4] deals with T2, Caspase-3 (Homo sapiens, UniProt P42574).
T2 construct: purchased Millipore
Nature of the series: Caspase-3 enzymatic assay (specificity). The series is classed as biochemical. On the procedure: as §1, §2
(§3) Caspase-3 and 8 —The enzyme was pre-incubated with inhibitor in assay buffer (100 mM HEPES pH 7.4, 0.1% CHAPS, 10% Sucrose) for 10 min at 37° C. The reaction was initiated upon addition of 25 μM substrate (Ac-Asp-Glu-Val-Asp-AMC (Bachem)).

The target of series [5] is T3, Caspase-8 (Homo sapiens, UniProt Q14790).
T3 construct: purchased Millipore
Nature of the series: Caspase-8 enzymatic assay (specificity). The series is classed as biochemical. On the procedure: as §1, §2, §3

Cathepsin-L, sequence (P07711 114-333, species assumed): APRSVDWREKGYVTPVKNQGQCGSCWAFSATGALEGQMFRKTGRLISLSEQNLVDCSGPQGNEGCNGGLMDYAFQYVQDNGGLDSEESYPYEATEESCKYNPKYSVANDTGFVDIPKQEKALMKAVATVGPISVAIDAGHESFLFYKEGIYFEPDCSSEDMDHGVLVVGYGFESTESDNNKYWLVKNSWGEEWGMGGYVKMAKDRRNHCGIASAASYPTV
T2 sequence (P42574 29-175 limits assumed, species assumed): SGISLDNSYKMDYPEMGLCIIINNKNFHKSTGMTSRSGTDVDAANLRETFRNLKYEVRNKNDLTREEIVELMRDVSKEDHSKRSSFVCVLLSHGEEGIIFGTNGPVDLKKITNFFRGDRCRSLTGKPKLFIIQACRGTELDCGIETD
T2 sequence (P42574 176-277 limits assumed, species assumed): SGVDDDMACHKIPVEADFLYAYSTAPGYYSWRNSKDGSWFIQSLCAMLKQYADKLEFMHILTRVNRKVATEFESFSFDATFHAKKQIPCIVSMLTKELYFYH
T3 sequence (Q14790 217-374 limits assumed, species assumed): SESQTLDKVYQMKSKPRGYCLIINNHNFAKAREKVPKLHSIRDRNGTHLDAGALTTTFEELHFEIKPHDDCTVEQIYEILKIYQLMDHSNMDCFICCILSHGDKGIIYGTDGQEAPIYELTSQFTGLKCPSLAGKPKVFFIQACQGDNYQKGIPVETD
T3 sequence (Q14790 385-479 limits assumed, species assumed): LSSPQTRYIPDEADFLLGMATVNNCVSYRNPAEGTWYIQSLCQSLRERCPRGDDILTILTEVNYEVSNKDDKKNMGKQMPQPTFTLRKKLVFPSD
T1 sequence (P25774 115-331): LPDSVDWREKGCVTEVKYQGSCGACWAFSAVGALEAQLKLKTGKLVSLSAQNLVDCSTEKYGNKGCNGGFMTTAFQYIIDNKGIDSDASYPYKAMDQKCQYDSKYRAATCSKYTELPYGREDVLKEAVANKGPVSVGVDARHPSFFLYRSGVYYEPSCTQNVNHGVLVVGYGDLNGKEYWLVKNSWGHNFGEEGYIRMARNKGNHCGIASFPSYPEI

With `CN(C)c1ccc(N2C(=O)C=CC2=O)cc1` [Compound 22], in series [1], the “genotoxicity (COMET and micronucleus assays)” value is given as “the only test compound to show genotoxicity”. The IC50 in series [2], in series [3], in series [4] and in series [5] was over 100 µM in each case.
